Data on 15 compounds can be found in patent publication US12428397B2, “Factor XI activation inhibitors” (Merck Sharp & Dohme LLC, priority 2020, dated 2025).

This test deals with T1, Human coagulation factor (F)XI (Homo sapiens, UniProt P03951).
T1 construct: purchased Haematologic Technologies Inc. (FXI); Enzyme Research Laboratories (FXIIa) HCXI-150 (FXI); HFXIIa (FXIIa)
T1 sequence (P03951 19-625): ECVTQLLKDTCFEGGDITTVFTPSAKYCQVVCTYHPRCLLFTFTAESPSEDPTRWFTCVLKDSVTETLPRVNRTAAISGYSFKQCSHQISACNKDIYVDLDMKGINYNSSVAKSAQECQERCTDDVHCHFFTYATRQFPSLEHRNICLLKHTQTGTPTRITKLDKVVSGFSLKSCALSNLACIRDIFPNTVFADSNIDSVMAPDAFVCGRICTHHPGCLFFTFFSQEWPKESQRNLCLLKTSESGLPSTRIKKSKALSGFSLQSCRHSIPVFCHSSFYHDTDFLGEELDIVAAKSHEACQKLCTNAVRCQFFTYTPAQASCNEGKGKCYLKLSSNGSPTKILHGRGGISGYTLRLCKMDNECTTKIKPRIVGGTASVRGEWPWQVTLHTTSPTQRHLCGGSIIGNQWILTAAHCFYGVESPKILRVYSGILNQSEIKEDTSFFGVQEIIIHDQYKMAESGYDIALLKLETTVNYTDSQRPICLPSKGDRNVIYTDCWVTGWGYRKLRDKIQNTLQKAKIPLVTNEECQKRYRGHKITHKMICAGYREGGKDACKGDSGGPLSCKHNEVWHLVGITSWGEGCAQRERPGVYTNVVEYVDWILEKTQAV
The test is described as follows: Inhibition of FXIIa mediated activation of FXI (activation of human Factor XI to XIa by human Factor α-XIIa). The test is classed as biochemical. Particulars: human FXI pre-incubated with compound 30 min at 22° C., activation by human FXIIa 60 min, z-GPR-AFC substrate fluorescence read-out, 4 parameter logistic fit; read-out: Inhibition of FXIIa meditated activation of FXI. The method, then: Inhibition of FXIIa Mediated Activation of FXI
Activation of Human Factor XI to XIa by Human Factor α-XIIa
The assay was performed in 50 mM HEPES, 150 mM NaCl, 5 mM CaCl2, 0.1% PEG-8000, pH 7.4 buffer in black, flat-bottom, polystyrene microplates (Corning, Cat #3573). Serial dilutions (10-point, 3.333-fold) of the test compounds delivered as 10 mM DMSO stocks were prepared in the Labcyte Echo-qualified PP 384 well microplates (Labcyte, Cat #P-05525). Human coagulation factor (F)XI (Haematologic Technologies Inc., Cat #HCXI-150, concentration 46 nM, 19.5 uL) was pre-incubated with 0.5 uL of the test compounds for 30 min at 22° C. The activation was initiated by addition of 10 uL of human coagulation factor (F)XIIa (Enzyme Research Laboratories, Cat #HFXIIa, concentration 30 nM) and the reaction proceeded for 60 min at 22° C., after which it was quenched by addition of a selective inhibitor of FXIIa (Compound 54 in WO2018093695) concentration 600 uM in DMSO, 1 uL. 10 min after the quench, 29 uL of z-GPR-AFC substrate (Sigma, Cat #C0980-10MG, concentration 200 uM) was added into each well and the detection reaction proceeded for 60 min at 22° C. Fluorescence at 405/510 nm was measured in end-point mode using an Envision plate-reader (Perkin Elmer). IDBS Activity Base XE (ABase) analysis using 4 parameter logistic fit was performed to determine Minimum, Maximum, EC50, and Slope Factor for each compound.
Take `O=C(c1cc(C(=O)N2CCCCC2)c2cc(OCc3ncc(Cl)cc3Cl)ncc2c1)N1CCC(n2ccnn2)CC1` [Example 5, (4-(1H-1,2,3-triazol-1-yl)piperidin-1-yl)(3-((3,5-dichloropyridin-2-yl)methoxy)-5-(piperidine-1-carbonyl)isoquinolin-7-yl)methanone]: the EC50 worked out at 41 nM. Take `O=C(c1cc(C(=O)N2CCCCC2)c2cc(OCc3nc4ccccc4s3)ncc2c1)N1CCC(n2cccn2)CC1` [Example 15, (4-(1H-pyrazol-1-yl)piperidin-1-yl)(3-(benzo[d]thiazol-2-ylmethoxy)-5-(piperidine-1-carbonyl)isoquinolin-7-yl)methanone]: the EC50 was found to be 19.9 nM. Regarding `N#CC1(c2ccccn2)CCN(C(=O)c2cc(C(=O)N3CCCCC3)c3cc(OCc4ncc(Cl)cc4Cl)ncc3c2)CC1` [Example 11, 1-(3-((3,5-dichloropyridin-2-yl)methoxy)-5-(piperidine-1-carbonyl)isoquinoline-7-carbonyl)-4-(pyridin-2-yl)piperidine-4-carbonitrile], the EC50 came out at 4.3 nM. The value for `O=C(c1cc(C(=O)N2CCCCC2)c2cc(OCc3ncc(C(F)(F)F)cc3Cl)ncc2c1)N1CCC(n2cccn2)CC1` [Example 8, (4-(1H-pyrazol-1-yl)piperidin-1-yl)(3-((3-chloro-5-(trifluoromethyl)pyridin-2-yl)methoxy)-5-(piperidine-1-carbonyl)isoquinolin-7-yl)methanone] was 13.4 nM; that for `O=C(c1cc(C(=O)N2CCCCC2)c2cc(OCc3ccc(C(F)(F)F)nc3)ncc2c1)N1CCC(n2cccn2)CC1` [Example 10, (4-(1H-pyrazol-1-yl)piperidin-1-yl)(5-(piperidine-1-carbonyl)-3-((6-(trifluoromethyl)pyridin-3-yl)methoxy)isoquinolin-7-yl)methanone] was 33.2 nM.

Turning to `N#CC1(c2ccccn2)CCN(C(=O)c2cc(C(=O)N3CCCCC3)c3cc(OCc4ncc(C(F)(F)F)cc4Cl)ncc3c2)CC1` [Example 12, 1-(3-((3-chloro-5-(trifluoromethyl)pyridin-2-yl)methoxy)-5-(piperidine-1-carbonyl)isoquinoline-7-carbonyl)-4-(pyridin-2-yl)piperidine-4-carbonitrile], the EC50 was found to be 24.3 nM.

Regarding `N#CC1(c2ccccc2)CCN(C(=O)c2cc(C(=O)N3CCCCC3)c3cc(OCc4nc5ccccc5s4)ncc3c2)CC1` [Example 1, 1-(3-(benzo[d]thiazol-2-ylmethoxy)-5-(piperidine-1-carbonyl)isoquinoline-7-carbonyl)-4-phenylpiperidine-4-carbonitrile], the EC50 is 37.9 nM. For the compound `O=C(c1cc(C(=O)N2CCCCC2)c2cc(OCc3ccc(Cl)cc3Cl)ncc2c1)N1CCC(n2cccn2)CC1` [Example 13, (4-(1H-pyrazol-1-yl)piperidin-1-yl)(3-((2,4-dichlorobenzyl)oxy)-5-(piperidine-1-carbonyl)isoquinolin-7-yl)methanone], the EC50 is 49.5 nM.

With `N#CC1(c2ccccc2)CCN(C(=O)c2cc(C(=O)N3CCCCC3)c3cc(OCc4ncc(Cl)cc4Cl)ncc3c2)CC1` [Example 6, 1-(3-((3,5-dichloropyridin-2-yl)methoxy)-5-(piperidine-1-carbonyl)isoquinoline-7-carbonyl)-4-phenylpiperidine-4-carbonitrile], the EC50 amounted to 19.4 nM.

Regarding `N#Cc1ccc(COc2cc3c(C(=O)N4CCCCC4)cc(C(=O)N4CCC(n5cccn5)CC4)cc3cn2)cn1` [Example 9, 5-(((7-(4-(1H-pyrazol-1-yl)piperidine-l-carbonyl)-5-(piperidine-1-carbonyl)isoquinolin-3-yl)oxy)methyl)picolinonitrile], the EC50 stood at 45.7 nM. As to `O=C(c1cc(C(=O)N2CCCCC2)c2cc(OCc3ncc(C(F)(F)F)cc3Cl)ncc2c1)N1CCC(n2ccnn2)CC1` [Example 3, (4-(1H-1,2,3-triazol-1-yl)piperidin-1-yl)(3-((3-chloro-5-(trifluoromethyl)pyridin-2-yl)methoxy)-5-(piperidine-1-carbonyl)isoquinolin-7-yl)methanone], the EC50 amounted to 32.7 nM. For `O=C(c1cc(C(=O)N2CCCCC2)c2cc(OCc3ncc(Cl)cc3Cl)ncc2c1)N1CCC(n2cccn2)CC1` [Example 14, (4-(1H-pyrazol-1-yl)piperidin-1-yl)(3-((3,5-dichloropyridin-2-yl)methoxy)-5-(piperidine-1-carbonyl)isoquinolin-7-yl)methanone], the EC50 was found to be 8.8 nM. The figure for `N#Cc1cccc(COc2cc3c(C(=O)N4CCCCC4)cc(C(=O)N4CCC(C#N)(c5ccccc5)CC4)cc3cn2)c1` [Example 7, 1-(3-((3-cyanobenzyl)oxy)-5-(piperidine-1-carbonyl)isoquinoline-7-carbonyl)-4-phenylpiperidine-4-carbonitrile] is 23.6 nM; for `N#CC1(c2ccccc2)CCN(C(=O)c2cc(C(=O)N3CCCCC3)c3cc(OCc4ncc(C(F)(F)F)cc4Cl)ncc3c2)CC1` [Example 2, 1-(3-((3-chloro-5-(trifluoromethyl)pyridin-2-yl)methoxy)-5-(piperidine-1-carbonyl)isoquinoline-7-carbonyl)-4-phenylpiperidine-4-carbonitrile] it is 26.8 nM; for `N#CC1(c2ccccc2)CCN(C(=O)c2cc(C(=O)N3CCCCC3)c3cc(OCCCc4cccnc4)ncc3c2)CC1` [Example 4, 4-phenyl-1-(5-(piperidine-1-carbonyl)-3-(3-(pyridin-3-yl)propoxy)isoquinoline-7-carbonyl)piperidine-4-carbonitrile] it is 8.5 nM.
